Assay results as given in US10322138B2, “Treatment of depressive disorders” (Pherin Pharmaceuticals, Inc., priority 2012, dated 2019).
Like-named read-outs stand apart in the source and are kept apart here.

Experiments:
[1] = system: individuals diagnosed with MDD and insomnia; details: cited from earlier work
[2] = system: isolated human nasal chemosensory neurons; assay: Electrophysiology: inward currents in isolated nasal chemosensory neurons; type: cell-based
mice = assay: Intranasal and intravenous toxicity up to 2.5 mg/Kg; type: in vivo, mouse; details: intranasal and intravenous up to 2.5 mg/Kg
estrogen receptors = assay: In vitro agonist/antagonist activity on steroid receptors
pregnant rabbits = assay: Reproductive toxicity study; type: in vivo, rabbit; details: intravenous doses up to 2.5 mg/Kg/day during organogenesis
progestin receptors = progestin receptors (Homo sapiens, UniProt P06401); assay: In vitro agonist/antagonist activity on steroid receptors
progestin receptors, sequence (P06401 whole entry): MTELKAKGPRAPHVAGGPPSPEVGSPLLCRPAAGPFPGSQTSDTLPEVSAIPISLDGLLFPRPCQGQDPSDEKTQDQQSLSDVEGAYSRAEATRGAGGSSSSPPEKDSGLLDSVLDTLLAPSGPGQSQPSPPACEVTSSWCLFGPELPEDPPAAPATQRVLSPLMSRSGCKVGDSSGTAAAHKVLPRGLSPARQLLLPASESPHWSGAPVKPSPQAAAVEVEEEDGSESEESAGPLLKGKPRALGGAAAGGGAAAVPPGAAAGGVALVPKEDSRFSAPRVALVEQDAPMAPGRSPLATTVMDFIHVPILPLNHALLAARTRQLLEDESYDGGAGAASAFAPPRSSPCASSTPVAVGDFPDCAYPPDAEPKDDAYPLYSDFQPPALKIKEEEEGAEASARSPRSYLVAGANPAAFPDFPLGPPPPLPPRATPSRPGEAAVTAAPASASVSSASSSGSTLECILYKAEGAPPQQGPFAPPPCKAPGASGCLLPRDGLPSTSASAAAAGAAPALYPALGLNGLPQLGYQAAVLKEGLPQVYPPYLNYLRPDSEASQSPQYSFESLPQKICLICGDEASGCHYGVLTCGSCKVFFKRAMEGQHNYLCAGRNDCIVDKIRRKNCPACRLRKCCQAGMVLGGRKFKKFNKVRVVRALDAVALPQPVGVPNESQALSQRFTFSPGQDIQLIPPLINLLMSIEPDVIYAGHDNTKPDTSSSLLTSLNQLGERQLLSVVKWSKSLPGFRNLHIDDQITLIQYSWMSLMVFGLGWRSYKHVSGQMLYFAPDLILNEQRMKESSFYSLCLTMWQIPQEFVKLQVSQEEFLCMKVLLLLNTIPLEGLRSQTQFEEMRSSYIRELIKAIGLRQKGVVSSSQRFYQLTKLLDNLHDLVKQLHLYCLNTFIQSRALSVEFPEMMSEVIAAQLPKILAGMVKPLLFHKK

mice of both sexes = assay: Intraperitoneal toxicity, 7-day observation; type: in vivo; details: intraperitoneal up to 200 mg/Kg
rats [3] = assay: Intranasal and intravenous toxicity up to 2.5 mg/Kg; type: in vivo, rat; details: intranasal and intravenous up to 2.5 mg/Kg
rats [4] = assay: One-month intranasal toxicity; type: in vivo, rat; details: intranasal up to 50 μg/day for one month
pregnant rats = assay: Reproductive toxicity study; type: in vivo, rat; details: intravenous doses up to 2.5 mg/Kg/day during organogenesis
glucocorticoid receptors = glucocorticoid receptors (Homo sapiens, UniProt P04150); assay: In vitro agonist/antagonist activity on steroid receptors
glucocorticoid receptors, sequence (P04150 whole entry): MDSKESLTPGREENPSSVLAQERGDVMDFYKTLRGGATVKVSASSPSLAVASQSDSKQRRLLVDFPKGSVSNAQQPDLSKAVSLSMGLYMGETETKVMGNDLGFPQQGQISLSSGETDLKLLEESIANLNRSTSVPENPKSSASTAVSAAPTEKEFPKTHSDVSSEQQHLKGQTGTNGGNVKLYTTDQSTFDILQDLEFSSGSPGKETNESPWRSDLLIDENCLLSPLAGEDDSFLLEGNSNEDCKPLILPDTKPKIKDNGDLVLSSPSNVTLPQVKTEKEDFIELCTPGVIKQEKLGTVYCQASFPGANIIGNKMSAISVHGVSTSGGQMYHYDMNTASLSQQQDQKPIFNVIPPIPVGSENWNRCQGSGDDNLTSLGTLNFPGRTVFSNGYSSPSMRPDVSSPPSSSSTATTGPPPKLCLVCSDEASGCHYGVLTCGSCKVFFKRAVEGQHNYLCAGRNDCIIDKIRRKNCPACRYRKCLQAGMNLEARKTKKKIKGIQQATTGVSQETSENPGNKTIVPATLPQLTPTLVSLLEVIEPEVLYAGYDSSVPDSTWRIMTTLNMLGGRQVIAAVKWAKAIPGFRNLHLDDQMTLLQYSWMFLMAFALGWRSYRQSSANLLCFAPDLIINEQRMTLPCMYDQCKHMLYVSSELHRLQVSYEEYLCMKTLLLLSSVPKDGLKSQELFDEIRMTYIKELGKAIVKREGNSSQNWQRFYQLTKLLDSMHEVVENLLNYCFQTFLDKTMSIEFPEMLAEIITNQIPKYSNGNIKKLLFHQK

[5] = system: receptors of indoleamine, monoamines, ion channels, receptors, peptides, opioid, glutamate neurotransmitter, steroid hormones, or glucocorticoid receptors; assay: In vitro receptor affinity panel; type: binding
dogs [6] = assay: 28-day intranasal toxicity; type: in vivo, dog; details: intranasal up to 300 μg/day for 28 days
healthy individuals = assay: Phase 1 open-label, flexible dose-escalation trial; type: in vivo, human
Procedure: In a Phase 1 open-label, flexible dose-escalation trial, the pregn-4-en-20-yn-3-one was formulated as an aqueous solution at 8 μg/mL, with 2% propylene glycol and 2% ethanol, and was administered with a Valois intranasal metered spray pump delivering 50 μL, so that the pregn-4-en-20-yn-3-one was administered at 400 ng/spray. The low-dose group received 400, 400, 1600, 1600, 2800, and 2800 ng/day over the six-day period of the trial, while the high-dose group received 4000, 4000, 5200, 5200, 6400, and 6400 ng/day over the six-day period of the trial. The trial enrolled 10 individuals, 7 male and 3 female, between 21 and 38 years old, healthy, free of any Axis I diagnosis according to the DSM-IV-TR, and not taking any central nervous system medications.

[7] = system: nasal septal chemosensory epithelium; assay: Electrophysiology: electrotonic depolarization of chemosensory epithelium; type: cell-based, human
[8] = Ames reverse mutation assay
androgen receptors = androgen receptors (Homo sapiens, UniProt P10275); assay: In vitro agonist/antagonist activity on steroid receptors
androgen receptors, sequence (P10275 whole entry): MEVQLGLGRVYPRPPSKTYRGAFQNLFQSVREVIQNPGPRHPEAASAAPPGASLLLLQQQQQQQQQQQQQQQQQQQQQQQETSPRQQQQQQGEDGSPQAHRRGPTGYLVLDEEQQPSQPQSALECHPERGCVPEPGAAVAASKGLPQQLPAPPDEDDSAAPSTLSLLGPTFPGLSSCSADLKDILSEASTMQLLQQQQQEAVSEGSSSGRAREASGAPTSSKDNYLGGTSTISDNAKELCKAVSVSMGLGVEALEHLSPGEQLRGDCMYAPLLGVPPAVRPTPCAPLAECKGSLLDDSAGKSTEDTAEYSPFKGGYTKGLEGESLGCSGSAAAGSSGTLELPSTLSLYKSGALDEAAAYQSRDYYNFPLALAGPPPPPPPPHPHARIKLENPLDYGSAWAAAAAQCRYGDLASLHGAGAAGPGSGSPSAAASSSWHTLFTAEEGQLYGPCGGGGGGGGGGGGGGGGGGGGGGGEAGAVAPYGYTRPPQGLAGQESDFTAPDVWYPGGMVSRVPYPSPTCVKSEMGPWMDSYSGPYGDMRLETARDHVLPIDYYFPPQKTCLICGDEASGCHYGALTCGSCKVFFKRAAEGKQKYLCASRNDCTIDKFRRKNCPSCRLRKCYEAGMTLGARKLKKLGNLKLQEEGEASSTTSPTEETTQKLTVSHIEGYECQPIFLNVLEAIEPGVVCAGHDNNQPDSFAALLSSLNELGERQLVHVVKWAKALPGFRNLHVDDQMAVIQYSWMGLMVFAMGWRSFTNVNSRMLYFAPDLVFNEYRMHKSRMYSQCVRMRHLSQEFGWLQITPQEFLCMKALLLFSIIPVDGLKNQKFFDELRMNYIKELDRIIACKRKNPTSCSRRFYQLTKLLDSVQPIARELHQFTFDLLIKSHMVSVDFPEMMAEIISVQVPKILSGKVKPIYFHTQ

[9] = system: healthy volunteers of both sexes; assay: Pilot trials, nasal administration; type: in vivo, human
rats of both sexes = type: in vivo; details: intravenous 1 mg/Kg
dogs [10] = assay: Intranasal and intravenous toxicity up to 2.5 mg/Kg; type: in vivo, dog; details: intranasal and intravenous up to 2.5 mg/Kg
[11] = system: individuals meeting the diagnostic criteria for MDD; assay: Phase 2 three-arm, double-blind, randomized trial in MDD; type: in vivo, human; details: for decrease in average HRSD-17 score from baseline (standard deviation): eight weeks of treatment; for Cohen's d relative to placebo, HRSD-17 item 4 / Cohen's d relative to placebo, HRSD-17 score / decrease in HRSD-17 item 4 (initial insomnia) from baseline: eight weeks
Procedure: In a Phase 2 three-arm, double-blind, randomized trial, individuals received either placebo (a nasal solution containing no pregn-4-en-20-yn-3-one), 3200 ng/day of pregn-4-en-20-yn-3-one (“low dose”), or 6400 ng/day of pregn-4-en-20-yn-3-one (“high dose”), formulated and administered as in the Phase 1 trial. The placebo group and the low dose group administered two sprays per nostril twice/day, the high dose group administered two sprays per nostril four times/day. The trial enrolled 30 individuals, male and female between 18 and 60 years old, meeting the diagnostic criteria for MDD and free of any other Axis I diagnosis according to the DSM-IV-TR, non-suicidal, and not taking any central nervous system medications (including natural products such as St. John's wort). The individuals were required to have a minimum score on the Hamilton Rating Scale for Depression (HRSD-17), a 17-item scale designed for completion by a health professional following a structured interview with the individual, of at least 17, meaning that they were at least moderately depressed; and the primary efficacy criterion in the trial was reduction in HRSD-17 score from baseline.
The trial included ten weekly visits. At the first (screening) visit, the individuals were assessed for depression symptoms and randomized into treatment groups. […] At the second (baseline) visit, they were assessed, trained in self-administration of the nasal spray, and began self-administration of their trial medication. There were seven visits at which they were assessed while on treatment with their trial medication; and one follow-up visit one week after the end of medication administration at which they were given final assessments.
[Cohen's d is the mean difference between groups divided by the pooled standard deviation. For behavioral measures, a Cohen's d of 0.2 represents a small treatment effect; 0.5, a medium treatment effect; and 0.8, a large treatment effect.] […] HRSD-17 item 4 measures initial insomnia (difficulty in falling asleep early in the night), and is scored 0, for no difficulty falling asleep; 1, for complaints of occasional difficulty falling asleep, i.e. more than ½ hour; and 2, complaints of nightly difficulty falling asleep.

bone marrow = assay: In vivo bone marrow micronucleus test
rabbits = assay: Intranasal and intravenous toxicity up to 2.5 mg/Kg; type: in vivo, rabbit; details: intranasal and intravenous up to 2.5 mg/Kg
[12] = type: in vivo; details: rat, repeated intranasal doses at 10 mg/Kg
[13] = escitalopram plus cognitive behavioral therapy for insomnia
[14] = escitalopram plus control quasi-desensitization therapy
[15] = Phase 1, intranasal 400-6400 ng/day over six days

## CN(C)CCC[C@@]1(c2ccc(F)cc2)OCc2cc(C#N)ccc21 [escitalopram]
[1]; [13]
  rate of remission of the depression: 61.5%
  remission of insomnia: 50.0%
[1]; [14]
  rate of remission of the depression: 33.3%
  remission of insomnia: 7.7%

## C#C[C@H]1CC[C@H]2[C@@H]3CCC4=CC(=O)CC[C@]4(C)[C@H]3CC[C@]12C [pregn-4-en-20-yn-3-one, Pregn-4-en-20-yn-3-one]
[2]
  inward currents in isolated human nasal chemosensory neurons: induced inward currents
[2]; amplitude increased depending on concentration
  concentration of maximal response (amplitude): 10^−7 to 10^−5 M
mice
  deaths, adverse clinical signs, physiological changes, clinical laboratory parameters: no deaths or adverse clinical signs, no physiological changes, or changes in clinical laboratory parameters
Estrogen receptors
  agonist or antagonist activity: no agonist or antagonist activity
Pregnant rabbits
  adverse effects on maternal or litter parameters: no adverse effects on maternal or litter parameters
Progestin receptors
  agonist or antagonist activity: no agonist or antagonist activity
Mice of both sexes
  macroscopic or microscopic changes in organs: no macroscopic or microscopic changes
Mice of both sexes; 7-day period
  mortality or adverse symptoms: no mortality or adverse symptoms
Rats [3]
  deaths, adverse clinical signs, physiological changes, clinical laboratory parameters: no deaths or adverse clinical signs, no physiological changes, or changes in clinical laboratory parameters
Rats [4]
  deaths, adverse clinical signs, laboratory or pathology parameters: no deaths or adverse clinical signs or effects on laboratory or pathology parameters
Pregnant rats
  adverse effects on maternal or litter parameters: no adverse effects on maternal or litter parameters
Glucocorticoid receptors
  agonist or antagonist activity: no agonist or antagonist activity
[5]
  affinity for receptors: nor was there any affinity
Dogs [6]
  deaths, adverse clinical signs, laboratory or pathology parameters: no deaths or adverse clinical signs or effects on the laboratory or pathology parameters
Healthy individuals; Phase 1
  differences in clinical laboratory values, neuropsychological functioning, brain activity between doses or visits: No statistically significant differences
  differences in safety parameters between the three doses of each treatment group: no statistically significant differences
Healthy individuals; [15]
  most frequent adverse events: increased appetite, and dizziness in the high dose group
  serious adverse events: no serious adverse events
[7]
  electrotonic depolarization of the nasal septal chemosensory epithelium: electrotonic depolarization
[8]
  mutagenic or clastogenic potential: no evidence of mutagenic or clastogenic potential
Androgen receptors
  agonist or antagonist activity: no agonist or antagonist activity
[9]; intranasal
  change in heart rate: did not produce statistically significant change
  change in respiratory rate: did not produce statistically significant change
  duration of the QTC intervals of the electrocardiogram: did not change
  effect on alpha and beta frequency bands of electroencephalogram: did not have significant effect
  effect on body temperature: did not have significant effect
  frequency of electrodermal activity events (skin conductance): did significantly increase
[9]; nasal administration
  tolerability: well tolerated
Rats of both sexes
  pathological changes: no pathological changes
Rats of both sexes; 8-day period
  changes in behavior: no changes in behavior
Dogs [10]
  deaths, adverse clinical signs, physiological changes, clinical laboratory parameters: no deaths or adverse clinical signs, no physiological changes, or changes in clinical laboratory parameters
[11]; Phase 2, any of the groups
  serious adverse events: no serious adverse events reported
[11]; high dose 6400 ng/day intranasal
  decrease in average HRSD-17 score from baseline (standard deviation): 18.6 (8.7)
[11]; high dose 6400 ng/day
  Cohen's d relative to placebo, HRSD-17 item 4: 1.60
  Cohen's d relative to placebo, HRSD-17 score: 0.82
  decrease in HRSD-17 item 4 (initial insomnia) from baseline: 1.4 (0.25)
[11]; low dose 3200 ng/day intranasal
  decrease in average HRSD-17 score from baseline (standard deviation): 18.3 (7.7)
[11]; low dose 3200 ng/day
  Cohen's d relative to placebo, HRSD-17 item 4: 0.39
  Cohen's d relative to placebo, HRSD-17 score: 0.86
  decrease in HRSD-17 item 4 (initial insomnia) from baseline: 0.6 (0.3)
[11]; nasal administration
  time to effect on a depressive disorder or its symptoms: ≤ 1 week
Bone marrow
  mutagenic or clastogenic potential: no evidence of mutagenic or clastogenic potential
rabbits
  deaths, adverse clinical signs, physiological changes, clinical laboratory parameters: no deaths or adverse clinical signs, no physiological changes, or changes in clinical laboratory parameters
[12]
  systemic exposure: very low systemic exposure (below the limit of accurate quantitation)
